How the values were obtained:
[1] = parameters: method as in PMID 32336116; details: copper(II) complexes of the named TSCs, measured under similar conditions ref 67; cited from earlier work
[2] = target: T1, mR2 RNR protein (Mus musculus, UniProt P11157); parameters: method as in PMID 21955844; details: in 3 min ref 76; cited from earlier work
T1 construct: made in house
T1 sequence (P11157 1-390): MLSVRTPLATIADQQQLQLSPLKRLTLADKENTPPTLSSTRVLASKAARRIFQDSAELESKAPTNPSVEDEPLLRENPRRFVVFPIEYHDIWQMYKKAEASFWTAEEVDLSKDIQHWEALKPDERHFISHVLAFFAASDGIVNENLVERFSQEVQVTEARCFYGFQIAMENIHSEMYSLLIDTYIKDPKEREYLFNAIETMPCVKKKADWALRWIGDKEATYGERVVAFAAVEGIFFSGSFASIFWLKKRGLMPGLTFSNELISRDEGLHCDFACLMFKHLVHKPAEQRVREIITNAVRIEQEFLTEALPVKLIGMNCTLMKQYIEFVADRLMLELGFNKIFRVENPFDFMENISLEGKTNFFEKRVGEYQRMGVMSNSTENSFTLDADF

[3] = test system: MES-SA cells; assay: Fluorescent protein-based cytotoxicity assay, MES-SA; type: cell-based, human; details: Homo sapiens, MES-SA; 120 h; ± SD; n = 3
From the text: (§1) The cytotoxic activity of proligands H2L^3–H2L^6 and their copper(II) complexes 3–6 was investigated in the MES-SA (human uterine sarcoma) and in its MDR counterpart (MES-SA/Dx5) cell lines by a fluorescent protein-based assay.[73]
(§2) The human uterine sarcoma cell lines MES-SA and the doxorubicin selected MES-SA-Dx5 were obtained from ATCC (MES-SA: No. CRL-1976, MES-SA/Dx5: No. CRL-1977) and were used for the intracellular ROS generation studies. For cytotoxicity, we used the fluorescent cell lines MES-SA mCherry and MES-SA/Dx5 eGFP, which were created by lentiviral transductions of the respective genes.[73] The phenotype of the resistant cells was maintained by 500 nM doxorubicin treatment a week before use and was verified using cytotoxicity assays. Cells were cultivated at 37 °C, 5% CO2 in Dulbecco’s modified Eagle's Medium (DMEM, Sigma-Aldrich), supplemented with 10% fetal bovine serum, 5 mM glutamine, and 50 unit/mL penicillin and streptomycin (Thermo Fisher).
(§3) MES-SA mCherry and MES-SA/Dx5 eGFP cell suspensions were seeded after trypsinization at 2500 cells/20 μL density on 384-well plates, containing 20 μL of completed medium. The next day, serial dilution of the compounds was prepared and added in an additional 20 μL, with or without 0.4 μM Tariquidar. Liquid handling steps were performed by a Hamilton StarLet robot. […] The mean and standard deviation of the pIC50 values were calculated and converted to IC50 values.

[4] = test system: MES-SA/Dx5 cells; assay: Fluorescent protein-based cytotoxicity assay, MES-SA/Dx5; type: cell-based, human
From the text: as §1, §2, §3

[5] = test system: MES-SA cells; assay: Intracellular ROS generation, DCF-DA assay, MES-SA; type: cell-based, human; details: 25 μM, 4 h treatment
Description: (§4) ROS accumulation was evaluated in both the MES-SA and MES-SA/Dx5 cell lines by using 2′,7′-dichlorodihydrofluorescein diacetate (H2DCF-DA) as a probe. This compound enters the cells by passive diffusion, and after oxidation, it is converted to the highly fluorescent 2′,7′-dichlorofluorescein (DCF), enabling the estimation of intracellular ROS levels. ROS generation was measured after a 4 h treatment with 25 μM H2L^6 or 6; tert-butylhydroperoxide (TBHP, 25 μM) was used as a positive control.
(§5) Figure 6 Intracellular ROS generation measured by the DCF-DA assay in MES-SA (filled bars) and MES-SA/Dx5 (lattice bars) cells, after a 4 h treatment with the indicated compounds at 25 μM: H2L^6 (gray), complex 6 (yellow), Triapine (green), and TBHP (brown). Values indicate fold change relative to the fluorescence of the cells treated with fluorescent probe alone (orange bars), following normalization to the initial fluorescence at the beginning of the incubation. Paired t test to the medium control was calculated; […]; **P < 0.01. Values were calculated from at least three independent experiments.
(§6) The human uterine sarcoma cell lines MES-SA and the doxorubicin selected MES-SA-Dx5 were obtained from ATCC (MES-SA: No. CRL-1976, MES-SA/Dx5: No. CRL-1977) and were used for the intracellular ROS generation studies. […]

[6] = test system: MES-SA/Dx5 cells; assay: Intracellular ROS generation, DCF-DA assay, MES-SA/Dx5; type: cell-based, human; details: 25 μM, 4 h treatment
Description: as §4, §5, §6

[7] = test system: MES-SA cells; assay: dNTP pools in MES-SA cell extracts; type: cell-based, human; details: 24 h
From the text: RNR reduces NDPs to their corresponding deoxy derivatives (dNDPs), which are further converted into dNTPs.[77] Therefore, we investigated the effect of the most toxic proligand H2L^6 and its copper(II) complex 6 on cellular dNTP levels, using Triapine as a control. […] Triapine also elicits a dATP pool decrease while increasing the pools of the three other dNTP species. Decreasing the dATP pool to zero can give rise to the observed cytotoxic effect upon treatment with Triapine. Complex 6 seems to affect dNTP pools by a more complex mechanism, which is nevertheless consistent with R2 inhibition.[79]
Figure 8 Measurement of dNTP pools in MES-SA cell extracts following a 24 h treatment with proligand H2L^6, complex 6, or Triapine at the indicated concentrations. Three independent experiments were performed; error bars represent standard error; stars indicate significant changes compared to the respective control (Ctrl) at p < 0.05.
After a 24 h incubation with or without drugs, MES-SA cells were washed twice with PBS and trypsinized for 5 min. […] The pellet containing dNTPs was redissolved in 50 μL of RNase-free water and stored at −20 °C. dNTP-containing samples were measured by a nucleotide incorporation-based fluorescent method.[97] We used a long synthetic oligonucleotide (197 nt) as a template, which contains a dNTP-detection site, the sole complementary base to that of the dNTP to be quantified directly adjacent to the annealed primer. […] In addition to the limiting amount of dNTP to be quantified, the polymerization reaction mix contained the other three dNTPs in large excess. The double-stranded DNA product is detected by the EvaGreen Dye. The 2X master mix for the DNA synthesis reaction contained the following: 0.275 μM primer (Merck KGaA, Darmstadt, Germany), 0.25 μM template (IDT, Coralville, Iowa, USA), 50 μM dNTP mix (excluding the dNTP to be measured in the given experiment to limit its source to the sample), and 1.25 μM EvaGreen (Biotium). […] Fluorescence amplitude data were extracted from the Bio-Rad CFX Maestro Software and analyzed using Excel and Origin. […]

**Q.** What does the source list for `NC(=S)NN=Cc1ncccc1N` [Triapine, 3-aminopyridine-2-carboxaldehyde thiosemicarbazone, reference compound]?
**A.** kobs, reduction by GSH [1]: 0.10 min^–1; mR2 Y• reduced [2]: 100%; IC50 [3]: 520 ± 100 nM; IC50 ([4]; Homo sapiens, MES-SA/Dx5, 120 h, ± SD, n = 3): 2800 ± 500 nM; SR, selectivity ratio IC50 (MES-SA)/IC50 (MES-SA/Dx5) ([4]; in the absence of TQ): 0.18; Intracellular ROS generation [5]: failed to induce ROS; Intracellular ROS generation [6]: failed to induce ROS; dATP pool [7]: decrease; pools of the three other dNTP species [7]: increasing

From paper PMC11181322, “Copper(II) Complexes with Isomeric Morpholine-Substituted 2-Formylpyridine Thiosemicarbazone Hybrids as Potential Anticancer Drugs Inhibiting Both Ribonucleotide Reductase and Tubulin Polymerization: The Morpholine Position Matters” (Journal of Medicinal Chemistry, 2024)
